# Data as given in patent publication US9163020B2, “Azaindole compounds, synthesis thereof, and methods of using the same” (Global Alliance for TB Drug Development, priority 2013, dated 2015).
# Read-outs that look alike come from different tables or passages of the source.
# Key:
# [1] = format: in vitro ADME
# Method: 1 μM compound was incubated with 1 mg/mL of microsomes (Pooled HLM/MLM with 20 mg/ml protein cone.) at 37° C. in 166 μL of buffer (100 mM phosphate buffer, pH-7.4) containing 2 mM NADPH solution. […] The quench plate was centrifuged at 4000 rpm for 15 min. 30 μL of supernatant was diluted to 300 μL with 50% acetonitrile in water and substrate depletion was analyzed using LC-MS/MS.
# [2] = Method: Viability of cryopreserved hepatocytes was determined using trypan blue and the cell conc. was adjusted to 10^6 cells per mL with buffer (KHB buffer). 1 μM compound (in Acetonitrile; 0.01% DMSO) was incubated with 500 μL of hepatocyte cells (1 million cells per mL) in a NUNC plate. […] Supernatants were analyzed using LC-MS/MS for substrate depletion.
# in vitro [3] = format: in vitro ADME; details: pH 7.4; mouse microsomes; read-out: Mo micrsomal Clint
# Method: 1 μM compound was incubated with 1 mg/mL of microsomes (Pooled HLM/MLM with 20 mg/ml protein cone.) at 37° C. in 166 μL of buffer (100 mM phosphate buffer, pH-7.4) containing 2 mM NADPH solution. 20 μL of incubation mix was quenched with 4 volumes chilled acetonitrile at different time points i.e. 0, 2, 5, 10, 20 and 30 min in a fresh 96 well plate. The quench plate was centrifuged at 4000 rpm for 15 min. 30 μL of supernatant was diluted to 300 μL with 50% acetonitrile in water and substrate depletion was analyzed using LC-MS/MS.
# in vivo [4] = details: po, 30 mg/kg
# Method: PK of azaindoles compounds was performed in mice (healthy and infected) and rats. Mice were pretreated with 100 mg/kg ABT two hours prior to the compound administration. PK data from healthy mice was used to design the dosing regimen for the efficacy study while, information from infected mice was used for the PK-PD analysis.
# All oral administration was performed as suspensions in 0.5% HPMC, and 0.1% Tween 80. […] All blood samples were collected via sapheneous vein into Microvette CB300® (Starstedt, Germany) tubes coated with Lithium-Heparin, and plasma was prepared from the collected blood by centrifugation.
# One mg/mL stock solution of each compound was prepared in Dimethylsulfoxide (DMSO) and diluted two-fold with acetonitrile. A sixteen point calibration curve was utilized for each analyte, and the standard curves ranged from 0.001 to 40 μg/mL. Plasma/BAL samples were precipitated by adding chilled acetonitrile (1:10 v/v) containing carbamazepine as internal standard (250 ng/mL). Samples were vortexed, and centrifuged at 4000 rpm for 30 min at 10° C. The resulting supernatant was mixed with mobile phase (50% acetonitrile in water with 0.1% formic acid). […] of sample was injected on to a liquid chromatographic system (Waters-ACQUTY UPLC) coupled to triple quadrupole mass spectrometer (Waters-ACQUTY-TQD; MS/MS). Samples were acquired in positive ion mode and detected by multiple reaction monitoring (MRM). Concentrations of the analyte were determined from a standard curve obtained by plotting known concentrations of the analyte against peak area ratios (analyte/internal standard peak response).
# PK analysis of the plasma concentration-time relationships were performed with WinNonlin Phoenix Software (version 6.2; Pharsight, USA). […] The maximum concentration of drug in plasma (Cmax), time to Cmax (Tmax), elimination half-life (t1/2), and AUC from time zero to infinity (AUC0-∞) were estimated. […] Minimum of three sample points in the terminal slope were used to estimate to calculate half-life.
# hERG = hERG (Homo sapiens, UniProt Q12809)
# Method: Compounds were tested on voltage-gated ion channels using the medium-throughput electrophysiology IonWorks™ device. […] For carrying out the experiment, a boat in the “Cells” position of the IonWorks™ instrument was loaded with the cell suspension, and a 96-well PBS destination plate was placed in the “Plate 1” position. A 384-well PatchPlate™ was placed in the IonWorks™ plenum and held in position using the plenum clamp. From this point the experiment progress is automated and ultimately reports a non-cumulative concentration-effect curve for test compound.
# in vivo [5] = details: BALB/c, mouse, po, 50 mg/kg
# in vivo [6] = details: BALB/c, mouse, po
# [7] = system: Mycobacterium tuberculosis (Mtb) H37Rv ATCC 27294; test: microbe, parasite or virus in culture; format: cell-based; details: Mycobacterium tuberculosis
# [8] = system: Mycobacterium tuberculosis (Mtb) H37Rv; test: Mtb minimal bactericidal concentration (MBC), plating from MIC plates; format: cell-based
# Method: Aliquots from sample wells (MIC and higher) from the MIC plates were diluted 1:10 and plated on 7H10 agar plates. Plates were incubated at 37° C. for 3-4 weeks, CFU was enumerated.
# [9] = system: hypoxia induced non-replicating persistent (NRP) Mtb cells; test: Activity against hypoxia induced non-replicating persistent (NRP) Mtb (HBC, Wayne model); format: cell-based, Mycobacterium tuberculosis; details: for Mtb H37Rv HBC: Table 5
# [10] = system: A549 human lung carcinoma cells; format: cell-based
# Method: The in vitro cytotoxicity of compounds were measured against A549 human lung carcinoma cells as describedin Eakin et. al (2012). Briefly, A549 cells (ATCC) were grown in RPMI medium (GIBCO-BRL) containing 10% heat-inactivated fetal bovine serum (GIBCO-BRL) and 1 mM L-glutamine (GIBCO-BRL) at a density of 1,000 cells/well. After incubation of the cells with compound in a CO2 atmosphere at 37° C. for 72 hours, cell viability was determined following addition of […] of resazurin solution (Sigma), by measuring fluorescence (excitation at 535 nm, emission at 590 nm) using a fluorimeter.
# physchem = format: physicochemical; details: 25 °C, pH 7.4, aqueous buffer, thermodynamic from solid
# Method: Solubility of the compounds in 0.1M phosphate buffer, pH 7.4 was determined as described, Glyburide was used as QC standard in the assay. Briefly, compounds were diluted in ACN/water (40:60) to desired concentration, samples were dried using Genevac for 4 hrs and subsequently 800 μl of buffer was added. Compound containing plates were stirred for 24 hrs at 25° C. on Eppendorf Thermomix R at 750 rpm. Finally, compound concentration was estimated using UV and MS analysis.
# in vitro [11] = format: in vitro ADME; details: plasma
# Method: Protein binding is measured using the equilibrium dialysis technique. Compound is added to 10% plasma giving a concentration of 20 μM and dialysed with isotonic buffer for 18 hours at 37° C. The plasma and buffer solutions are analysed using generic LCUVMS and the first apparent binding constant for the compound derived. The binding constant is then used to determine the % free in 100% plasma.
# [12] = pH 7.4
# Method: Octanol-water partition coefficient (Log D) based on the shake-flask principle has been measured as follows. The aqueous solution used was 10 mM sodium phosphate buffer pH 7.4. 20 μL of 10 mM compound dissolved in DMSO was taken in glass vial plate. DMSO was removed using GeneVac. 435 μL of octanol was added using Tomtec, stirred for 5 min to dissolve. Further mixing was done by inversion for 5 h at 25° C., subsequently centrifuged for 30 min at 3000 RPM. LC/UV/APPI/MS quantitation of both aqueous and octanol layers was carried out. Log D value was determined according to the following equation.
# [13] = system: CYP1A2, CYP2C9, CYP2C19, CYP2D6, CYP3A4; details: human
# [14] = system: panel of human targets and cardiac channels
# in vivo [15] = details: male, Wistar, rat, po, 100 mg/kg
# [16] = Table 5, read-out: Mtb H37Rv MIC
# [17] = Table 5, read-out: Mtb H37Rv MBC
# Sequence of hERG (Q12809 whole entry): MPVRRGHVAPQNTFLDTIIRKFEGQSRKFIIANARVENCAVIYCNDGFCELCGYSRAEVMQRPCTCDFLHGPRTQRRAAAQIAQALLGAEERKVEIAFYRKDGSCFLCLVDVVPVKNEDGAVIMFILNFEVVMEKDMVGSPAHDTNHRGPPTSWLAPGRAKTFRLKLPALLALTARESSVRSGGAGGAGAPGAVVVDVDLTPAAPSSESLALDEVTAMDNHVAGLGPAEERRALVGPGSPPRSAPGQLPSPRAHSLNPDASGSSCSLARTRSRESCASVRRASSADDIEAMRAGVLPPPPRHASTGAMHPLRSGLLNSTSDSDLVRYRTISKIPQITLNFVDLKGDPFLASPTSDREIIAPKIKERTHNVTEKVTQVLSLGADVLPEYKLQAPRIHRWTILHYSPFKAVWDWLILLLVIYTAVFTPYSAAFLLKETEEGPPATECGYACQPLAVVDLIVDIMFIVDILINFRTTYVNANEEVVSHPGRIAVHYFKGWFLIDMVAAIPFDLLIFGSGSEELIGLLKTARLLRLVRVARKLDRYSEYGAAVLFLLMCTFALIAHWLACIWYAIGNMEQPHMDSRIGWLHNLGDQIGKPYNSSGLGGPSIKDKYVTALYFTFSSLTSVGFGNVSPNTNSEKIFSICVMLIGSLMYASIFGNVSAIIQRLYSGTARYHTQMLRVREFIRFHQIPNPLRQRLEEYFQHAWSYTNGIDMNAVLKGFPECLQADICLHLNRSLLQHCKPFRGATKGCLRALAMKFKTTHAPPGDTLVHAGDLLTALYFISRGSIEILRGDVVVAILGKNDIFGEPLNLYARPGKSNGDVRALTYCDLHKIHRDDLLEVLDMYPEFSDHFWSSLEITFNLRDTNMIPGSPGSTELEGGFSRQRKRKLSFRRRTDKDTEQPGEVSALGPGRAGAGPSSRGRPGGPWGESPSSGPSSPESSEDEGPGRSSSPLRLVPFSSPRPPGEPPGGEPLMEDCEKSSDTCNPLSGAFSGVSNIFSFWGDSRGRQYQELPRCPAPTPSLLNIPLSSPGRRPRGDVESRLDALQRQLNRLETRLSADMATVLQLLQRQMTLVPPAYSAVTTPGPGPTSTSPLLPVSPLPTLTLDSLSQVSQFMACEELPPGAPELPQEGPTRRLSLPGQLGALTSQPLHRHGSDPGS
smiles,measurement,setting,value
"COc1ncnc(Cn2cc(C(=O)NCC3CC3)c3ncccc32)c1C [Compound 4, N-(cyclopropylmethyl)-1-((6-methoxy-5-methylpyrimidin-4-yl)methyl)-1H-pyrrolo[3,2-b]pyridine-3-carboxamide]",predicted clearance,"[1]; human, rat",4-18 % of liver blood flow (% LBF)
same,Human CLpred hepatocytes (% LBF),[2],4.3 % LBF
same,Rat CLpred hepatocytes (% LBF),[2],13 % LBF
same,microsomal CLint,in vitro [3],180 µL/min/mg
same,AUC(0-inf),"in vivo [4]; Wistar, rat, in vivo",22.9 µM·h
same,Cmax,"in vivo [4]; Wistar, rat, in vivo",2.35 µM
same,Tmax,"in vivo [4]; Wistar, rat, in vivo",3 h
same,half-life,"in vivo [4]; Wistar, rat, in vivo",3.64 h
same,hERG,hERG,>33 µM
same,AUC(0-inf),in vivo [5],200 ± 101 µM·h
same,Cmax,in vivo [5],38.9 ± 15.2 µM
same,Tmax,in vivo [5],4.5 ± 2.78 h
same,half-life,in vivo [5],2.23 ± 0.35 h
same,AUC,in vivo [6],200 to 700 µM·h
same,AUC(0-inf),in vivo [6]; 30 mg/kg,227 ± 28.9 µM·h
same,Cmax,in vivo [6]; 30 mg/kg,17.4 ± 1.76 µM
same,Tmax,in vivo [6]; 30 mg/kg,5.67 ± 2.31 h
same,half-life,in vivo [6]; 30 mg/kg,3.85 ± 0.54 h
"COc1ncnc(Cn2cc(C(=O)NCCF)c3ncc(C)cc32)c1C [Compound 8, N-(2-fluoroethyl)-1-((6-methoxy-5-methylpyrimidin-4-yl)methyl)-6-methyl-1H-pyrrolo[3,2-b]pyridine-3-carboxamide]",MIC,"[7]; Table 1, read-out: Mtb MIC",< 0.53 µM
same,MIC,"[7]; Table 4, read-out: Mtb MIC",< 0.39 µM
same,MBC,"[8]; Table 4, read-out: Mtb MBC",< 0.39 µM
same,Mtb HBC,"[9]; hypoxic conditions, Wayne model, Table 4",100 µM
same,MMIC (A549),"[10]; human, 72 h",>100 µM
same,solubility,physchem,4 µM
same,Human CLpred microsomes (% LBF),[1]; pH 7.4,10.1 % LBF
same,Human CLpred hepatocytes (% LBF),[2]; 1 μM,4.3 % LBF
same,Rat CLpred hepatocytes (% LBF),[2]; 1 μM,14.9 % LBF
same,"fraction unbound at 18 h, 20 μM",in vitro [11]; human,0.05 to 0.22
same,Human PPB (% free),in vitro [11],5 % free
same,microsomal CLint,in vitro [3],108 µL/min/mg
same,AUC(0-inf),"in vivo [4]; BALB/c, mouse",64.2 µM·h
same,Cmax,"in vivo [4]; BALB/c, mouse",13.4 µM
same,Tmax,"in vivo [4]; BALB/c, mouse",2 h
same,half-life,"in vivo [4]; BALB/c, mouse",4.15 h
same,AUC(0-inf),"in vivo [4]; Wistar, rat, in vivo",29.3 µM·h
same,Cmax,"in vivo [4]; Wistar, rat, in vivo",3.69 µM
same,Tmax,"in vivo [4]; Wistar, rat, in vivo",4.5 h
same,half-life,"in vivo [4]; Wistar, rat, in vivo",3.58 h
same,logD,[12],2.6
same,CYP inhibition,[13],>50 µM
same,hERG,hERG,>33 µM
same,Secondary pharmacology hits IC50,[14],No significant hits
same,in vitro safety profiling,[14],no major safety liabilities
same,AUC(0-inf),in vivo [15],98.4 ± 31.9 µM·h
same,Cmax,in vivo [15],11.9 ± 3 µM
same,Tmax,in vivo [15],1.5 ± 0.6 h
same,half-life,in vivo [15],7.2 ± 1.3 h
"COc1ncnc(Cn2cc(C(=O)NCC(F)F)c3ncc(C)cc32)c1C [Compound 30, N-(2,2-difluoroethyl)-1-((6-methoxy-5-methylpyrimidin-4-yl)methyl)-6-methyl-1H-pyrrolo[3,2-b]pyridine-3-carboxamide]",MIC,"[7]; Table 1, read-out: Mtb MIC",< 0.391 µM
same,AUC(0-inf),in vivo [15],23.3 ± 11.7 µM·h
same,Cmax,in vivo [15],3.4 ± 2 µM
same,Tmax,in vivo [15],3.3 ± 2.3 h
same,half-life,in vivo [15],3.3 ± 1.1 h
"Cc1ccc(Cn2cc(C(=O)NCCF)c3ncccc32)c(C)c1 [Compound 31, 1-(2,4-dimethylbenzyl)-N-(2-fluoroethyl)-1H-pyrrolo[3,2-b]pyridine-3-carboxamide]",MIC,"[7]; Table 1, read-out: Mtb MIC",1.56 µM
same,MIC,[7]; [16],1.56 to 3.12 µM
same,MBC,[8]; [17],3.12 to 6.25 µM
same,Mtb H37Rv HBC,[9],12.5 to 25 µM
same,MMIC (A549),"[10]; human, 72 h",>82 µM
"COc1cccc(F)c1Cn1cc(C(=O)NCC2CC2)c2ncccc21 [Compound 32, N-(cyclopropylmethyl)-1-(2-fluoro-6-methoxybenzyl)-1H-pyrrolo[3,2-b]pyridine-3-carboxamide]",MIC,"[7]; Table 1, read-out: Mtb MIC",1.56 µM
same,MIC,[7]; [16],1.56 to 3.12 µM
same,MBC,[8]; [17],1.56 to 6.25 µM
same,Mtb H37Rv HBC,[9],>200 µM
same,MMIC (A549),[10]; Table 5,>100 µM
"Cc1cnc2c(C(=O)NCCO)cn(Cc3ncnc(N(C)C)c3C)c2c1 [Compound 34, 1-((6-(dimethylamino)-5-methylpyrimidin-4-yl)methyl)-N-(2-hydroxyethyl)-6-methyl-1H-pyrrolo[3,2-b]pyridine-3-carboxamide]",MIC,"[7]; Table 1, read-out: Mtb MIC",< 0.39 µM
same,AUC(0-inf),in vivo [15],166 ± 43.9 µM·h
same,Cmax,in vivo [15],31.5 ± 3 µM
same,Tmax,in vivo [15],2 h
same,half-life,in vivo [15],4.6 h
"Cc1cnc2c(C(=O)NCCF)cn(Cc3ncc(C)nc3C)c2c1 [Compound 45, 1-((3,5-dimethylpyrazin-2-yl)methyl)-N-(2-fluoroethyl)-6-methyl-1H-pyrrolo[3,2-b]pyridine-3-carboxamide]",MIC,"[7]; Table 1, read-out: Mtb MIC",< 0.39 µM
"Cc1cnc2c(C(=O)NCC(F)F)cn(Cc3ncc(C)nc3C)c2c1 [Compound 46, N-(2,2-difluoroethyl)-1-((3,5-dimethylpyrazin-2-yl)methyl)-6-methyl-1H-pyrrolo[3,2-b]pyridine-3-carboxamide]",MIC,"[7]; Table 1, read-out: Mtb MIC",< 0.39 µM
NNC(=O)c1ccncc1 [Isoniazid],reduction in the bacterial CFU of NRP Mtb,[9],no reduction
